Test results published in patent US20100305134A1, “SPECIFIC INHIBITORS OF PTERIDINE REDUCTASE WITH ANTIPARASITIC ACTION” (priority 2007, published 2010).
Read-outs that look alike come from different tables or passages of the source.

Columns and labels:
[1] = test system: Tripanosoma cruzi amastigote form; assay: Intracellular growth of Tripanosoma cruzi amastigote form; type: cell-based; design: unit of the concentration uncertain; conditions: 72 h exposure, control 100
[2] = test system: PTR1 overexpressing lines; assay: Parasite growth inhibition, PTR1 overexpressing lines; type: cell-based; conditions: ratio of EC50 from PTR1 overexpressing lines to EC50 from WT lines
LmDHFR = target: T1, LmDHFR (Leishmania major, UniProt P07382); assay: biochemical; conditions: NI means no inhibition at 190 μM; read-out: DHFR Lm Ki
T1 construct: made in house
Experimental: (§1) The compounds of the invention were tested against the following enzyme library: TcPTR1, LmPTR1, LmDHFR, LcTS, EcTS, CnTS, hTS, DHFR. The proteins were all purified following the known procedures (ref). The enzymes were purified through chromatographic methods that usually require a prepurification step using a ion exchange resin, than the eluted active fractions were pooled and a second purification step follows were a hydrophobic resin and sometimes a gel filtration resin is used as the final step. The protein is characterized using Mass Spectrometry and Specific Activity and concentration is detected. Moreover Km for the substrates is useful to set up the inhibition experiments. In general the protein is stored at −80° C. and defrozen in small quantities when necessary.

LmPTR1 = target: T2, LmPTR1 (Leishmania major, UniProt Q01782); assay: biochemical; type: biochemical; conditions: NI means no inhibition at 190 μM; read-out: PTR1 Lm Ki
T2 construct: made in house
T2 sequence (Q01782 1-288): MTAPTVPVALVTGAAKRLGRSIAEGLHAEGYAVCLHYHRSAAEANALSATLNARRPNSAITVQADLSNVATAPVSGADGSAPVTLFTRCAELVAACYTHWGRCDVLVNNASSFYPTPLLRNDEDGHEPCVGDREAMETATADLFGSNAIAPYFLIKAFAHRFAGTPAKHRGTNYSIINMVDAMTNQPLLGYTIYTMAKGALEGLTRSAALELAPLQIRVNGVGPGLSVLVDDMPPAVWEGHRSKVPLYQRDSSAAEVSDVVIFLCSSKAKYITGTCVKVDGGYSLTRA
Experimental: The compounds of the invention were tested against the following enzyme library: TcPTR1, LmPTR1, LmDHFR, LcTS, EcTS, CnTS, hTS, DHFR.

hTS = target: T3, hTS (Homo sapiens, UniProt P04818); assay: TS enzyme inhibition (standard TS assay), human TS; type: biochemical; conditions: NI means no inhibition at 190 μM; read-out: TS h Ki
T3 construct: made in house
Experimental: as §1

h DHFR = target: T4, h DHFR (Homo sapiens, UniProt P00374); assay: DHFR enzyme inhibition (standard DHFR assay), human DHFR; type: biochemical
T4 construct: made in house
T4 sequence (P00374 1-187): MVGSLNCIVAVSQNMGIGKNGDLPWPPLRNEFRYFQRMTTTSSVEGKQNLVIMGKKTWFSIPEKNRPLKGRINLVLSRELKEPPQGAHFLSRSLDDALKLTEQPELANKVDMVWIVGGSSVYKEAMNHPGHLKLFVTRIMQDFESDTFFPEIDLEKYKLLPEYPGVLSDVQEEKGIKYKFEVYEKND
Experimental: as §1

Lm TS = target: T5, Lm TS (Leishmania major, UniProt P07382); assay: biochemical; type: biochemical
T5 construct: made in house
Experimental: as §1

TcPTR1 = TcPTR1 (Trypanosoma cruzi, UniProt O44029); assay: PTR1 enzyme inhibition (dihydrofolic acid substrate, NADPH cofactor), TcPTR1; type: biochemical
Experimental: as §1

TS = TS enzyme inhibition, three-value table lines (species column not resolvable); type: biochemical; conditions: species column (h or Lm) not resolvable; NI means no inhibition at 190 μM, NI marks ⋄ Δ ▴ undefined; read-out: TS Ki (first value of three-value lines)
[3] = NI means no inhibition at 190 μM, read-out: DHFR h Ki
[4] = NI means no inhibition at 190 μM; read-out: TS Lm Ki
[5] = NI means no inhibition at 190 μM, read-out: PTR1 Tc Ki

T3 sequence (P04818 whole entry): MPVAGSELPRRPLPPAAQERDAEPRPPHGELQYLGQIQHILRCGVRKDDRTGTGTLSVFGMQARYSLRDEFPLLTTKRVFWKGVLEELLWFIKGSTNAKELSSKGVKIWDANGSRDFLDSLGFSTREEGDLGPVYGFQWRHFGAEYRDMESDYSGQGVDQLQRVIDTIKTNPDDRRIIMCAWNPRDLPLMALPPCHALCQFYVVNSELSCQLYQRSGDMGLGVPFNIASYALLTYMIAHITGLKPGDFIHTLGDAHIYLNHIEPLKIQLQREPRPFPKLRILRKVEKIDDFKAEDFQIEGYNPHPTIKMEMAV
Sequence of TcPTR1 (O44029 entry or part of it): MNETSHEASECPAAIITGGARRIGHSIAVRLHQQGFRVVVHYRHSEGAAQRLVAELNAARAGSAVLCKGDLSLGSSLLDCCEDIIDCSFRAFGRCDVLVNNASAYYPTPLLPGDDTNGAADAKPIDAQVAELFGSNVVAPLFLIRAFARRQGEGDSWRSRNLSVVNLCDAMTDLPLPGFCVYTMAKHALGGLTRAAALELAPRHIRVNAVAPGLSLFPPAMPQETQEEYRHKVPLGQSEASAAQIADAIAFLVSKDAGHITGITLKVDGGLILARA
T5 sequence (P07382 whole entry): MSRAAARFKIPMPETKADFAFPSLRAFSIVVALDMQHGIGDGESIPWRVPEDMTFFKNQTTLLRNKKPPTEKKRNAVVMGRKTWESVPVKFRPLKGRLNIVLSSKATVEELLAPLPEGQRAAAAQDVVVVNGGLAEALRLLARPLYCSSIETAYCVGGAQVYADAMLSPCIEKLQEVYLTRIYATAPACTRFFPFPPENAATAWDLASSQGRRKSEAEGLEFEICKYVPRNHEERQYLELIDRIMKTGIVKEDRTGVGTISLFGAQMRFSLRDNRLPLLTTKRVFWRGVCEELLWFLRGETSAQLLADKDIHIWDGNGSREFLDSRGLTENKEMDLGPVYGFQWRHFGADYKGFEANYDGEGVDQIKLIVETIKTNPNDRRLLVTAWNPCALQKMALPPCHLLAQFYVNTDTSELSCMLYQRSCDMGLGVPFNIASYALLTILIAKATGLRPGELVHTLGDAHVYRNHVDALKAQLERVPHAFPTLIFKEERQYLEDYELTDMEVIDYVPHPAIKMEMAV
T1 sequence (P07382 whole entry): as above

| SMILES | Ki (LmDHFR) [µM] | Ki (LmPTR1) [µM] | Ki (hTS) [µM] | Ki (h DHFR; [3]) [µM] | Ki (Lm TS; [4]) [µM] | Ki (TcPTR1; [5]) [µM] | further results |
| --- | --- | --- | --- | --- | --- | --- | --- |
| CCc1nc(N)nc(N)c1-c1ccc(Cl)cc1 [Pyr, pyrimetamine] | – | – | – | – | – | – | % amastigotes (medium value) ([1]; 10 (unit uncertain)): 37.4%; % amastigotes (medium value) ([1]; 20 (unit uncertain)): 26.3%; RDR [2]: 2.3 |
| CCOC(=O)c1nc2ccccc2nc1CNc1ccc(C(=O)N2CCC(C(=O)O)CC2C(=O)O)cc1 (stereo not drawn) | 75 | > 190 | 15 | 24 | > 190 | 38 | – |
| CN(Cc1cnc2nc(N)nc(N)c2n1)c1ccc(C(=O)N[C@@H](CCC(=O)O)C(=O)O)cc1 [Mtx, methotrexate] | – | – | – | – | – | – | RDR [2]: 104.1 |
| CN(Cc1cnc2nc(N)nc(N)c2n1)c1ccc(C(=O)NC(CCC(=O)O)C(=O)O)cc1 (stereo not drawn) | – | – | – | – | – | – | Ki (TcPTR1): 0.11 µM |
| COC(=O)C1CCN(C(=O)c2ccc(NCc3nc4cc(C(F)(F)F)ccc4nc3-c3ccccc3)cc2)C(C(=O)OC)C1 (stereo not drawn) | 88 | > 190 | 13 | > 190 | > 190 | 40 | – |
| COC(=O)C1CCN(C(=O)c2ccc(N(C)Cc3cnc4nc(N)nc(N)c4n3)cc2)CC1 | – | – | – | – | – | – | Ki (h DHFR): 0.8 µM; Ki (Lm TS; read-out: TS Lm Ki; NI means no inhibition at 190 μM): > 190 µM |
| COC(=O)C1CCN(C(=O)c2ccc(N(CCO)Cc3cnc4nc(N)nc(N)c4n3)cc2)CC1 | – | – | – | – | – | – | Ki (TS): 64.5 µM |

Further lines, with some results ahead:

| Ki (LmDHFR) [µM] | Ki (LmPTR1) [µM] | Ki (hTS) [µM] | Ki (h DHFR; [3]) [µM] | Ki (Lm TS; [4]) [µM] | Ki (TcPTR1; [5]) [µM] | SMILES | further results |
| --- | --- | --- | --- | --- | --- | --- | --- |
| 40 | 7 | 41 | 56 | > 190 | 75 | O=C(O)C1CCN(C(=O)c2ccc(NCc3cnc4cccc(C(F)(F)F)c4n3)cc2)CC1 | – |
| 4 | 0.1 | – | 10 | > 190 | 7 | COC(=O)C1CCN(C(=O)c2ccc(NCc3cnc4nc(N)nc(C)c4n3)cc2)CC1 | – |
| 17 | – | 13 | 54 | > 190 | 20 | Cc1cc(C(F)(F)F)cc2nc(-c3ccccc3)c(CNc3ccc(C(=O)N4CCC(C(=O)O)CC4)cc3)nc12 | – |
| 27 | 6 | 12 | > 190 | 86 | 106 | CCOC(=O)C1CCCCN1C(=O)c1ccc(NCc2cnc3ccc(C(F)(F)F)cc3n2)cc1 (stereo not drawn) | – |
